Data from patent US12331068B2, “Compositions and methods for inhibiting CD73” (Peloton Therapeutics, Inc., priority 2018, dated 2025).
Where two headings read alike, the source gives them in different places. Each block holds one compound with its values, some of them ahead of it.

Assays:
Human CD73 = molecular target: T1, Human CD73 (Homo sapiens, UniProt P21589); assay: CD73 Enzyme Assay (EnzChek PNP/MESG kinetic readout of AMP hydrolysis); type: biochemical
T1 construct: purchased R&D Systems; host or cells: CHO cells
T1 sequence (P21589 27-549): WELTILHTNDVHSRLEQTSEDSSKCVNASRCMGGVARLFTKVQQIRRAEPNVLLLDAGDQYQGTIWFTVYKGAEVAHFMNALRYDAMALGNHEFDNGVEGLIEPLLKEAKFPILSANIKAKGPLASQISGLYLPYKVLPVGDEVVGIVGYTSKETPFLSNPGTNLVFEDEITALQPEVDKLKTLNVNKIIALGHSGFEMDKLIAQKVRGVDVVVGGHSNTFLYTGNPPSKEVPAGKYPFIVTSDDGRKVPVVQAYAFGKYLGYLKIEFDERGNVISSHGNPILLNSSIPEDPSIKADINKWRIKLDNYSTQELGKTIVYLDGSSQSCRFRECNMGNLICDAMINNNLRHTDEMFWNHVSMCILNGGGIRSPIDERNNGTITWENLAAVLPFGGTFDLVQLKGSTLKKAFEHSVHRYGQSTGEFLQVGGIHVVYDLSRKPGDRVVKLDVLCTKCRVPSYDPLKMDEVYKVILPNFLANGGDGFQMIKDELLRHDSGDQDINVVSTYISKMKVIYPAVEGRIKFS
Method: A compound of the present disclosure (5 μL) was transferred to a 384-well assay plate. The compound was added in a 15 point, 3-fold serial dilution (300 μM to 0.0002 μM) in DMSO. […] The plate was immediately placed in a plate reader (Synergy 2 or Spark 10), and a reading was taken every minute for 10 to 20 minutes in a kinetic run at 360 nm. The linear portion of the curve was used to determine the observed rate (initial velocity). Low signal controls containing 100 μM adenosine 5′-(α,β-methylene) diphosphate and high signal controls containing no compound were measured for each plate.
IC50 values were calculated using Dotmatics template equation for 4-parameter fit. Results are expressed as % inhibition using the following equation: […]

[1] = molecular target: T2, CD73 on U138 human neuroglioma cells (Homo sapiens, UniProt P21589); assay: CD73 Cell-Based Assay (inorganic phosphate from AMP, malachite green); details: AMP substrate, 2 hours at 37° C., read-out: CD73 Cell-Based assay IC50
T2 construct: U138 cells were obtained from ATCC and cultured in DMEM with 10% FBS; host or cells: U138 human neuroglioma cells
T2 sequence (P21589 27-549): T1 sequence (P21589 27-549)
Method: U138 human neuroglioma cells were used in these experiments. U138 cells were obtained from ATCC and cultured in DMEM with 10% FBS. 2500 cells were seeded into 96-well plate with 100 μL of media the day before the experiment. […] After washing, 100 μL of buffer was added to each well, then 100 μL of a mixture of AMP substrate (200 μM) and diluted compound was added to each well. The cells were incubated at 37° C. (with 5% CO2) for 2 hours. 50 μL of supernatant was transferred to a 96-well assay plate and the concentration of inorganic phosphate was determined using malachite green reagent (R&D System; Cat: DY996).

[2] = 0.25 nM hCD73, 25 μM AMP, read-out: CD73 Enzyme Assay IC50

SMILES: N#Cc1c(Cl)nc2c(cnn2[C@@H]2O[C@H](COCP(=O)(O)O)[C@@H](O)[C@H]2O)c1NC1CC2CC2C1 (some centres unmarked) [Compound 70]
IC50 (Human CD73; [2]): < 10 nM
IC50 [1]: < 10 nM

SMILES: CN(c1c(C#N)c(Cl)nc2c1ccn2[C@@H]1O[C@H](CS(=O)(=O)CP(=O)(O)O)[C@@H](O)[C@H]1O)C1CC(F)(F)C1 [Compound 154]
IC50 (Human CD73; [2]): < 10 nM
IC50 [1]: < 10 nM

SMILES: N#Cc1c(Cl)nc2c(ncn2[C@@H]2O[C@H](CS(=O)(=O)CP(=O)(O)O)[C@@H](O)[C@H]2O)c1N1CCC(F)(F)C1 [Compound 118]
IC50 (Human CD73; [2]): < 10 nM
IC50 [1]: < 10 nM

SMILES: C[C@@H](Nc1c(C#N)c(Cl)nc2c1ccn2[C@@H]1O[C@H](CS(=O)(=O)CP(=O)(O)O)[C@@H](O)[C@H]1O)c1cccc(C#N)c1 [Compound 179]
IC50 (Human CD73; [2]): < 10 nM
IC50 [1]: < 10 nM

SMILES: C[C@H](Nc1c(C#N)c(Cl)nc2c1cnn2[C@@H]1O[C@H](CS(=O)(=O)CP(=O)(O)O)[C@@H](O)[C@H]1O)c1ccc(F)cc1 [Compound 184, (((((2S,3S,4R,5R)-5-(6-chloro-5-cyano-4-(((S)-1-(4-fluorophenyl)ethyl)amino)-1H-pyrazolo[3,4-b]pyridin-1-yl)-3,4-dihydroxytetrahydrofuran-2-yl)methyl)sulfonyl)methyl)phosphonic acid]
IC50 (Human CD73; [2]): < 10 nM
IC50 [1]: < 10 nM

SMILES: N#Cc1c(Cl)nc2c(c(F)cn2[C@@H]2O[C@H](COCP(=O)(O)O)[C@@H](O)[C@H]2O)c1N1CCC(F)(F)C1 [Compound 151]
IC50 (Human CD73; [2]): < 10 nM
IC50 [1]: < 10 nM

SMILES: C[C@@H](Nc1c(C#N)c(Cl)nc2c1cnn2[C@@H]1O[C@H](CS(=O)(=O)CP(=O)(O)O)[C@@H](O)[C@H]1O)c1ccccc1F [Compound 183]
IC50 (Human CD73; [2]): < 10 nM
IC50 [1]: < 10 nM

SMILES: N#Cc1c(Cl)nc2c(ncn2[C@@H]2O[C@H](COCP(=O)(O)O)[C@@H](O)[C@H]2O)c1N1C[C@@H](F)[C@@H](F)C1 [Compound 92, ((((2R,3S,4R,5R)-5-(5-chloro-6-cyano-7-((3S,4R)-3,4-difluoropyrrolidin-1-yl)-3H-imidazo[4,5-b]pyridin-3-yl)-3,4-dihydroxytetrahydrofuran-2-yl)methoxy)methyl)phosphonic acid]
IC50 (Human CD73; [2]): < 10 nM
IC50 [1]: < 10 nM

SMILES: N#Cc1c(Cl)nc2c(cnn2[C@@H]2O[C@H](COCP(=O)(O)O)[C@@H](O)[C@H]2O)c1N1CC[C@H](F)C1 [Compound 79]
IC50 (Human CD73; [2]): < 10 nM
IC50 [1]: < 10 nM

SMILES: N#Cc1nc2c(ccn2[C@@H]2O[C@H](CS(=O)(=O)CP(=O)(O)O)[C@@H](O)[C@H]2O)c(N2CCC(F)(F)C2)c1Cl [Compound 143]
IC50 (Human CD73; [2]): < 10 nM
IC50 [1]: < 10 nM

SMILES: N#Cc1nc2c(ccn2[C@@H]2O[C@H](CS(=O)(=O)CP(=O)(O)O)[C@@H](O)[C@H]2O)c(NC2CC(F)(F)C2)c1Cl [Compound 142]
IC50 (Human CD73; [2]): < 10 nM
IC50 [1]: < 10 nM

SMILES: C[C@@H](Nc1c(C#N)c(Cl)nc2c1ccn2[C@@H]1O[C@H](COCP(=O)(O)O)[C@@H](O)[C@H]1O)c1ccc(F)cc1 [Compound 7]
IC50 (Human CD73; [2]): < 10 nM
IC50 [1]: < 10 nM

SMILES: N#Cc1c(Cl)nc2c(cnn2[C@@H]2O[C@H](COCP(=O)(O)O)[C@@H](O)[C@H]2O)c1N1C[C@@H](F)[C@H](F)C1 [Compound 80]
IC50 (Human CD73; [2]): < 10 nM
IC50 [1]: < 10 nM

SMILES: C[C@H](Nc1c(C#N)c(Cl)nc2c1ncn2[C@@H]1O[C@H](COP(=O)(O)CP(=O)(O)O)[C@@H](O)[C@H]1O)c1ccc(F)cc1 [Compound 215, (((((2R,3S,4R,5R)-5-(5-chloro-6-cyano-7-(((S)-1-(4-fluorophenyl)ethyl)amino)-3H-imidazo[4,5-b]pyridin-3-yl)-3,4-dihydroxytetrahydrofuran-2-yl)methoxy)(hydroxy)phosphoryl)methyl)phosphonic acid]
IC50 (Human CD73): < 10 nM
IC50 [1]: < 10 nM

SMILES: C[C@@H](Nc1c(C#N)c(Cl)nc2c1cnn2[C@@H]1O[C@H](CS(=O)(=O)CP(=O)(O)O)[C@@H](O)[C@H]1O)c1ccc(F)cc1 [Compound 191]
IC50 (Human CD73; [2]): < 10 nM
IC50 [1]: < 10 nM

SMILES: C[C@H](Nc1c(C#N)c(Cl)nc2c1cnn2[C@@H]1O[C@H](CS(=O)(=O)CP(=O)(O)O)[C@@H](O)[C@H]1O)c1ccc(C#N)cc1 [Compound 185]
IC50 (Human CD73; [2]): < 10 nM
IC50 [1]: < 10 nM

SMILES: C[C@@H](Nc1c(C#N)c(Cl)nc2c1cnn2[C@@H]1O[C@H](CS(=O)(=O)CP(=O)(O)O)[C@@H](O)[C@H]1O)c1ccc(C#N)cc1 [Compound 192]
IC50 (Human CD73; [2]): 10 to 100 nM
IC50 [1]: 10 to 100 nM

SMILES: C[C@@H](Nc1c(C#N)c(Cl)nc2c1ncn2[C@@H]1O[C@H](COP(=O)(O)CP(=O)(O)O)[C@@H](O)[C@H]1O)c1ccc(F)cc1 [Compound 214]
IC50 (Human CD73): < 10 nM
IC50 [1]: < 10 nM

Now from value to compound:

IC50 (Human CD73; [2]): < 10 nM
IC50 [1]: < 10 nM
SMILES: C[C@@H](Nc1c(C#N)c(Cl)nc2c1ccn2[C@@H]1O[C@H](COP(=O)(O)CP(=O)(O)O)[C@@H](O)[C@H]1O)c1ccc(C#N)cc1 [Compound 213]

IC50 (Human CD73; [2]): 10 to 100 nM
IC50 [1]: 10 to 100 nM
SMILES: N#Cc1nc2c(ccn2[C@@H]2O[C@H](CS(=O)(=O)CP(=O)(O)O)[C@@H](O)[C@@H]2F)c(NC2CC(F)(F)C2)c1C#N [Compound 174]

IC50 (Human CD73; [2]): < 10 nM
IC50 [1]: < 10 nM
SMILES: C[C@H](Nc1c(C#N)c(Cl)nc2c1ncn2[C@@H]1O[C@H](COP(=O)(O)CP(=O)(O)O)[C@@H](O)[C@H]1O)c1ccc(F)cn1 [Compound 240]

IC50 (Human CD73; [2]): < 10 nM
IC50 [1]: < 10 nM
SMILES: N#Cc1c(Cl)nc2c(ncn2[C@@H]2O[C@H](COP(=O)(O)CP(=O)(O)O)[C@@H](O)[C@@H]2F)c1N1CCC(F)(F)C1 [Compound 97]

IC50 (Human CD73; [2]): < 10 nM
IC50 [1]: < 10 nM
SMILES: N#Cc1c(Cl)nc2c(cnn2[C@@H]2O[C@H](COCP(=O)(O)O)[C@@H](O)[C@H]2O)c1NC1CCCC1 [Compound 69, ((((2R,3S,4R,5R)-5-(6-chloro-5-cyano-4-(cyclopentylamino)-1H-pyrazolo[3,4-b]pyridin-1-yl)-3,4-dihydroxytetrahydrofuran-2-yl)methoxy)methyl)phosphonic acid]

IC50 (Human CD73; [2]): < 10 nM
IC50 [1]: < 10 nM
SMILES: N#Cc1c(Cl)nc2c(ccn2[C@@H]2O[C@H](COP(=O)(O)CP(=O)(O)O)[C@@H](O)[C@@H]2F)c1NC1CCCC1 [Compound 216]

IC50 (Human CD73; [2]): < 10 nM
IC50 [1]: < 10 nM
SMILES: N#Cc1c(Cl)nc2c(cnn2[C@@H]2O[C@H](COCP(=O)(O)O)[C@@H](O)[C@H]2O)c1NC1CC(F)(F)C1 [Compound 81]

IC50 (Human CD73; [2]): < 10 nM
IC50 [1]: < 10 nM
SMILES: C[C@H](Nc1c(C#N)c(Cl)nc2c1ccn2[C@@H]1O[C@H](COP(=O)(O)CP(=O)(O)O)[C@@H](O)[C@H]1O)c1ccc(F)cn1 [Compound 212]

IC50 (Human CD73; [2]): < 10 nM
IC50 [1]: < 10 nM
SMILES: N#Cc1c(Cl)nc2c(ncn2[C@@H]2O[C@H](COCP(=O)(O)O)[C@@H](O)[C@H]2O)c1N1CC[C@H](F)C1 [Compound 84]

IC50 (Human CD73; [2]): < 10 nM
IC50 [1]: < 10 nM
SMILES: N#Cc1c(Cl)nc2c(cnn2[C@@H]2O[C@H](COP(=O)(O)CP(=O)(O)O)[C@@H](O)[C@H]2O)c1N1CC2CC2C1 (some centres unmarked) [Compound 72]

IC50 (Human CD73; [2]): < 10 nM
IC50 [1]: < 10 nM
SMILES: C[C@H](Nc1c(C#N)c(Cl)nc2c1ccn2[C@@H]1O[C@H](COP(=O)(O)CP(=O)(O)O)[C@@H](O)[C@@H]1F)c1ccc(C#N)cc1 [Compound 230]

IC50 (Human CD73; [2]): < 10 nM
IC50 [1]: < 10 nM
SMILES: CC(C)Nc1c(C#N)c(Cl)nc2c1ccn2[C@@H]1O[C@H](COP(=O)(O)CP(=O)(O)O)[C@@H](O)[C@H]1O [Compound 207]

IC50 (Human CD73; [2]): < 10 nM
IC50 [1]: < 10 nM
SMILES: N#Cc1c(Cl)nc2c(ccn2[C@@H]2O[C@H](COCP(=O)(O)O)[C@@H](O)[C@H]2O)c1N1C[C@@H](F)[C@@H](F)C1 [Compound 67, ((((2R,3S,4R,5R)-5-(6-chloro-5-cyano-4-((3S,4R)-3,4-difluoropyrrolidin-1-yl)-1H-pyrrolo[2,3-b]pyridin-1-yl)-3,4-dihydroxytetrahydrofuran-2-yl)methoxy)methyl)phosphonic acid]

IC50 (Human CD73; [2]): < 10 nM
IC50 [1]: < 10 nM
SMILES: N#Cc1c(Cl)nc2c(ncn2[C@@H]2O[C@H](COP(=O)(O)CP(=O)(O)O)[C@@H](O)[C@H]2O)c1NC1CCCC1 [Compound 209]

IC50 (Human CD73; [2]): < 10 nM
IC50 [1]: < 10 nM
SMILES: N#Cc1c(Cl)nc2c(ccn2[C@@H]2O[C@H](CS(=O)(=O)CP(=O)(O)O)[C@@H](O)[C@H]2O)c1NC1CCC1 [Compound 19]

IC50 (Human CD73; [2]): < 10 nM
IC50 [1]: < 10 nM
SMILES: N#Cc1c(Cl)nc2c(ccn2[C@@H]2O[C@H](COP(=O)(O)CP(=O)(O)O)[C@@H](O)[C@H]2O)c1NC1CCOC1 (some centres unmarked) [Compound 224]
